Laboratory results taken from US7902196B2, “Synthesis of avrainvillamide, strephacidin B, and analogues thereof” (President and Fellows of Harvard College, priority 2005, dated 2011).
Blank lines part the entries; values can stand above or below the molecule they belong to.

What was measured:
[1] = stability in solution protected from light
[2] = interconversion of stephacidin B (1) and 2 in solution; type: physicochemical; conditions: 50% DMSO-d6-CD3CN, 23° C.
Protocol: Our preliminary studies leave little doubt that 1 and 2 are readily interconverted in solution. For example, concentration of an acetonitrile-water solution of pure synthetic stephacidin B (1) at 38° C. afforded a 2:1 mixture of 2 and 1, as well as unidentified decomposition products. Also, whereas solutions of pure 1 in 50% DMSO-d6-CD3CN appeared to be stable for at least 48 h at 23° C. (The merits of the DMSO-d6-CD3CN solvent system in stabilizing stephacidin B were discussed in Qian-Cutrone et al. J. Am. Chem. Soc. 2002, 124, 14556; incorporated herein by reference.), addition of powdered 3-Å molecular sieves led to partial retro-dimerization, giving a 2:1 mixture of 1 and 2 within 1 h at 23° C. We also observed partial transformation of 1 to form 2 upon exposure to silica gel (2D-TLC analysis). From the data thus far it is clear that (−)-2 and (+)-1 readily interconvert under mild conditions. […] In theory, the converse may be true, though this seems less likely, simply upon consideration of concentration effects. Our results also leave open the possibility that stephacidin B is an artifact of the isolation of 2; the converse may be true instead, though this would appear to be less likely.

[3] = decomposition of stephacidin B into avrainvillamide (FIG. 18); type: physicochemical
[4] = system: cultured human cancer cells; conditions: reported for the fungal isolates; cited from earlier work
cell cycle = test: effect of avrainvillamide on the cell cycle (FIG. 19); type: cell-based
apoptosis and necrosis = test: induction of apoptosis and necrosis (FIG. 20); type: cell-based
Protocol: FIG. 20 induces apoptosis at 1-4 μM and necrosis at 8 μM.

[5] = system: multidrug-resistant bacteria; conditions: reported; cited from earlier work
[6] = 1,5-addition of methanol-d4 to 2

time stable in solution ([1]; 37 mM solution in methylene-d2-chloride, 23° C., protected from light): at least 7 h
stability upon concentration to dryness ([1]; 1H NMR analysis): decomposed within two hours
Molecule: CC(C)(C)/C=C/C=[N+]([O-])c1ccccc1 [α-(trans-3,3-dimethyl-1-butenyl)-N-phenylnitrone]

Molecule: avrainvillamide [compound 1]
time solutions appeared stable [2]: at least 48 h

Molecule: CC1(C)C=Cc2c(ccc3c2[N+]([O-])=C2C(C)(C)[C@@H]4C[C@]56CCCN5C(=O)C4(NC6=O)C4N5C(=O)C67CCCN6C(=O)[C@]56C(C7)C(C)(C)c5c(c7ccc8c(c7n5O)C=CC(C)(C)O8)[C@H]6C234)O1 (stereo partly drawn) [stephacidin B]
avrainvillamide formed by decomposition of stephacidin B [3]: 1.7 equiv.
antiproliferative activity [4]: exhibit antiproliferative activity

Molecule: CC1(C)C=Cc2c(ccc3c2[N+]([O-])=C2C3=C[C@@]34NC(=O)[C@]5(CCCN5C3=O)C[C@H]4C2(C)C)O1 [avrainvillamide]
effect on the cell cycle (cell cycle): induces arrest in G2/M
concentration inducing apoptosis (apoptosis and necrosis): 1 to 4 µM
concentration inducing necrosis (apoptosis and necrosis): 8 µM
species present under physiological conditions [3]: major species present under physiological conditions
antiproliferative activity [4]: exhibit antiproliferative activity
antimicrobial activity [5]: anti-microbial activity against multidrug-resistant bacteria
equilibrium constant, methanol-d4 adducts combined to 2 ([6]; 23° C., tentative): 7.7
time to form the products of 1,5-addition of methanol-d4 ([6]; pure methanol-d4, 23° C.): < 10 min
half-life ([6]; solution in pure methanol-d4): < 10 min

Molecule: CC1(C)C=Cc2c(ccc3c2[N+]([O-])=C2C3=C[C@@]34NC(=O)[C@]5(CCCN5C3=O)C[C@H]4C2(C)C)O1 [compound 1, avrainvillamide]
antimicrobial activity [5]: antimicrobial activity against multidrug-resistant bacteria
